Test system: NGI (NFL-GCL-IPL) retinal layers
Experiment: ON axotomy model, retinal NGI thickness by FD-OCT
Assay type: in vivo
Settings: rat ON axotomy, 3 μg intravitreal immediately after axotomy, days 11 and 14, versus untreated axotomy
Description: Antagonists of p75NTR prevented loss of retinal structure after ON axotomy. The relative in vivo efficacy for I-B and LM-24 was tested using the ON axotomy model. A quantitative non-invasive structural endpoint, FD-OCT, was performed in the same animal over time to measure the integrity of the neuronal layers. We quantified the axons and fibers of the RGCs that contribute to the thickness of the Nerve Fiber Layer (NFL), the Ganglion Cell Layer (GCL), and the Inner Plexiform Layer (IPL), herein termed NGI. Maintenance of NGI structure correlates with RGC health (Bai et al., 2010a).
Wistar rats (female, 250-300 g; Charles River) were kept in a 12 hours dark-light cycle with food and water ad libitum. All animal manipulations were performed between 9 AM and 12 AM. […]
FD-OCT is a non-invasive method that allows time-kinetic studies in the same animal. […] In each B-scan the thickness of the NFL-GCL-IPL (NGI) was measured at four adjacent points at a distance 1.5 mm from the ON head. […]
For studies in the glaucoma animal model the injections were performed at days 14 and 21 after cauterization. […] Thus, in this paradigm there is pre-existing damage for 14 days before treatment (measured at ˜8% RGC death (Shi et al., 2007; Shi et al., 2008)); and the treatments require long-lived efficacy in the constant presence of retinal stress due to high IOP. […]

Question: Which “preservation of NGI thickness (FD-OCT)” value does the source give for `CC(C)NC(=O)N(C(=O)Cn1cnc2c1c(=O)n(C)c(=O)n2C)C(C)C` [I-B, 1,3-Diisopropyl-1-[2-(1,3-dimethyl-2,6-dioxo-1,2,3,6-tetrahydro-purin-7-yl)-acetyl]-urea] here?
Answer: significant preservation of the NGI thickness

Reference: US9296691B2, “Inhibitors of p75 receptor and their uses” (Horacio Uri Saragovi, priority 2010, dated 2016)
